Among the data in US7772183B2 (Bristol-Myers Squibb Company, priority 2005, dated 2010) are EC50, melting point and IC50 values, retold here.

Data set [1] deals with HCV replicon in HUH-7 cells. The data set is described as follows: HCV replicon FRET assay. The class given is cell-based, Hepatitis C virus (strain 1b). Particulars: Hepatitis C virus, Huh-7; HCV replicon, for compounds tested; read-out: EC50 Range. The gist of the method:
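HUH-7 cells stably carrying a genotype 1b subgenomic HCV replicon (NS3–NS5B) treated with compound for 4 days at 37° C, 0.5% DMSO final. Cytotoxicity (CC50) read by alamar Blue; cells then lysed with 10 μM FRET HCV protease peptide substrate and kinetically read (340/490 nm) for EC50.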

Data set [2] has as its target T1, HCV NS3/4A protease complex, BMS strain (UniProt P27958, species not given/STRAIN_BMS).
T1 construct: said of H77 and J4L6S; fused on or other part: A three-lysine solubilising tail at the C-terminus of NS4A and a His tag (pET21b, Ni-NTA purification)
The data set is described as follows: FRET peptide assay to monitor HCV NS3/4A proteolytic activity (BMS strain). Type of data set: biochemical, Hepatitis C virus (genotype 1a). Particulars: NS3/4A BMS strain; read-out: IC50 Range. In outline: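 Recombinant NS3/4A complexes (aa 1027–1711) from H77 (1a) and J4L6S (1b) carried a three-lysine tail, C1711G and C1454S. They were expressed in E. coli BL21(DE3) (0.5 mM IPTG, 22 h, 20 °C), then purified by Ni-NTA and Superdex-S200 to >90% purity. The BMS strain was a genotype 1a clone from patient serum.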

T1 sequence (P27958 1027-1657, change not shown, one chain of several): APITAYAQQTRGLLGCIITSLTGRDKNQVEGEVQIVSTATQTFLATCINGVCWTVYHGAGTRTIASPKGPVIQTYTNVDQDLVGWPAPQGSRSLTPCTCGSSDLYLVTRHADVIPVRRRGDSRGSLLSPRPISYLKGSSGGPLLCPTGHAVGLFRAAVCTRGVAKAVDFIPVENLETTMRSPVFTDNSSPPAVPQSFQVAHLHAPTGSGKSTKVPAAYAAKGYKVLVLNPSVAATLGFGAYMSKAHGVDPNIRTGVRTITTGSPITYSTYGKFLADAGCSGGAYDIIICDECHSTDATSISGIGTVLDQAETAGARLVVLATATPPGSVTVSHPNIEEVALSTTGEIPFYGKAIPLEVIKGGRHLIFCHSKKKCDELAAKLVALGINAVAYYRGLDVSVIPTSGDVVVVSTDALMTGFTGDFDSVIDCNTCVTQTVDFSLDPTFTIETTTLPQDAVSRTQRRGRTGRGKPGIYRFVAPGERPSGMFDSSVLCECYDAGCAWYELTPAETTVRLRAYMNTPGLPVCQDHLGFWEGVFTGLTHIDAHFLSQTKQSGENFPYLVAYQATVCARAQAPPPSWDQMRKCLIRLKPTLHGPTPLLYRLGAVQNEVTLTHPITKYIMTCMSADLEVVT

Molecule `CC(C)(C)OC(=O)N[C@H]1CCCCC/C=C\[C@@H]2C[C@@]2(C(=O)NS(=O)(=O)C2CC2)NC(=O)[C@@H]2C[C@@H](OC(=O)c3cccc(Cl)c3)CN2C1=O` [Compound 22, 18-(3-chorobenzoyloxy)-14-tert-butoxycarbonylamino-4-cyclopropylsulfonylaminocarbonyl-2,15-dioxo-3,16-diazatricyclo-[14.3.0.0^4,6]-nonadec-7-ene] registered a melting point of 154 to 156 °C. Also, the EC50 in data set [1] is under 100 nM. In addition, in data set [2], the IC50 was under 100 nM.

Regarding `CC(C)(C)OC(=O)N[C@H]1COCCC/C=C\[C@@H]2C[C@@]2(C(=O)NS(=O)(=O)C2CC2)NC(=O)[C@@H]2C[C@@H](OC(=O)Nc3ccccc3-c3ccccc3)CN2C1=O` [Compound 42, 18-(2-biphenylaminocarbonyloxy)-14-tert-butoxycarbonylamino-4-cyclopropylsulfonylaminocarbonyl-2,15-dioxo-3,16-diaza-12-oxatricyclo-[14.3.0.0^4,6]-nonadec-7-ene], the melting point was in the range of 147 to 149 °C. In data set [1], the EC50 is 100 to 1000 nM. Besides, the IC50 in data set [2] was under 100 nM.

The molecule `CCC(C(=O)O[C@@H]1C[C@H]2C(=O)N[C@]3(C(=O)NS(=O)(=O)C4CC4)C[C@H]3/C=C\COCCC[C@H](NC(=O)OC(C)(C)C)C(=O)N2C1)c1ccccc1` (mixture of isomers) [Compound 5, 18-(2-phenylbutyryloxy)-14-tert-butoxycarbonylamino-4-cyclopropylsulfonylaminocarbonyl-2,15-dioxo-3,16-diaza-10-oxatricyclo-[14.3.0.0^4,6]-nonadec-7-ene] registered a melting point of 113 to 115 °C. Besides, in data set [1], the concentration giving a half-maximal response (EC50) was over 1000 nM. In addition, the 50% inhibitory concentration (IC50) in data set [2] is under 100 nM.

`COc1ccc(C(=O)O[C@@H]2C[C@H]3C(=O)N[C@]4(C(=O)NS(=O)(=O)C5CC5)C[C@H]4/C=C\CCCCC[C@H](NC(=O)OC(C)(C)C)C(=O)N3C2)cc1` [Compound 20, 18-(4-methoxybenzoyloxy)-14-tert-butoxycarbonylamino-4-cyclopropylsulfonylaminocarbonyl-2,15-dioxo-3,16-diazatricyclo-[14.3.0.0^4,6]-nonadec-7-ene]: the melting point fell in the range of 151 to 153 °C. Also, the half-maximal effective concentration (EC50) in data set [1] was under 100 nM. The IC50 in data set [2] was under 100 nM.

`CC(C)(C)OC(=O)N[C@H]1CCCCC/C=C\[C@@H]2C[C@@]2(C(=O)NS(=O)(=O)C2CC2)NC(=O)[C@@H]2C[C@@H](OC(=O)c3ccc4ccccc4c3)CN2C1=O` [Compound 18, 18-(2-naphthoyloxy)-14-tert-butoxycarbonylamino-4-cyclopropylsulfonylaminocarbonyl-2,15-dioxo-3,16-diazatricyclo-[14.3.0.0^4,6]-nonadec-7-ene]: the melting point lay within 156 to 158 °C. Also, the EC50 in data set [1] is under 100 nM. The IC50 in data set [2] was under 100 nM.

The molecule `CC(C)(C)OC(=O)N[C@H]1CCCCC/C=C\[C@@H]2C[C@@]2(C(=O)NS(=O)(=O)C2CC2)NC(=O)[C@@H]2C[C@@H](OC(=O)c3ccccc3)CN2C1=O` [Compound 15, 18-benzoyloxy-14-tert-butoxycarbonylamino-4-cyclopropylsulfonylaminocarbonyl-2,15-dioxo-3,16-diazatricyclo-[14.3.0.0^4,6]-nonadec-7-ene] yielded a melting point of 140 to 142 °C. In data set [1], the concentration for a half-maximal effect (EC50) is under 100 nM. The IC50 in data set [2] is under 100 nM.

In the case of `Cc1cc(C(=O)O[C@@H]2C[C@H]3C(=O)N[C@]4(C(=O)NS(=O)(=O)C5CC5)C[C@H]4/C=C\CCCCC[C@H](NC(=O)OC(C)(C)C)C(=O)N3C2)no1` [Compound 34, 18-(5-methylisoxazole-3-carbonyloxy)-14-tert-butoxycarbonylamino-4-cyclopropylsulfonylaminocarbonyl-2,15-dioxo-3,16-diazatricyclo-[14.3.0.0^4,6]-nonadec-7-ene], the melting point was in the range of 157 to 159 °C. For the same molecule, the concentration for a half-maximal effect (EC50) in data set [1] is over 1000 nM. Moreover, the IC50 in data set [2] was under 100 nM.

`CC(C)(C)OC(=O)N[C@H]1CCCOC/C=C\[C@@H]2C[C@@]2(C(=O)NS(=O)(=O)C2CC2)NC(=O)[C@@H]2C[C@@H](OC(=O)c3ccc(-c4ccccc4)cc3)CN2C1=O` [Compound 11, 18-(4-biphenylcarbonyloxy)-14-tert-butoxycarbonylamino-4-cyclopropylsulfonylaminocarbonyl-2,15-dioxo-3,16-diaza-10-oxatricyclo-[14.3.0.0^4,6]-nonadec-7-ene] displayed a melting point of 160 to 162 °C. The concentration for a half-maximal effect (EC50) in data set [1] is under 100 nM. In addition, in data set [2], the IC50 is under 100 nM.

`CC(C)(C)OC(=O)N[C@H]1COCCC/C=C\[C@@H]2C[C@@]2(C(=O)NS(=O)(=O)C2CC2)NC(=O)[C@@H]2C[C@@H](OC(=O)c3cccc(Oc4ccccc4)c3)CN2C1=O` [Compound 13, 18-(3-phenoxybenzoyloxy)-14-tert-butoxycarbonylamino-4-cyclopropylsulfonylaminocarbonyl-2,15-dioxo-3,16-diaza-12-oxatricyclo-[14.3.0.0^4,6]-nonadec-7-ene] showed a melting point of 123 to 125 °C. Further, in data set [1], the EC50 lay in the range of 100 to 1000 nM. Moreover, the IC50 in data set [2] is under 100 nM.

The molecule `CC(C)(C)OC(=O)N[C@H]1COCCC/C=C\[C@@H]2C[C@@]2(C(=O)NS(=O)(=O)C2CC2)NC(=O)[C@@H]2C[C@@H](OC(=O)Nc3ccccc3Oc3ccccc3)CN2C1=O` [Compound 40, 18-(2-phenoxyphenylaminocarbonyloxy)-14-tert-butoxycarbonylamino-4-cyclopropylsulfonylaminocarbonyl-2,15-dioxo-3,16-diaza-12-oxatricyclo-[14.3.0.0^4,6]-nonadec-7-ene] yielded a melting point of 151 to 153 °C. In addition, in data set [1], the 50% effective concentration (EC50) fell in the range of 100 to 1000 nM. The IC50 in data set [2] lay in the range of 100 to 1000 nM.

Take `CC(C)(C)OC(=O)N[C@H]1CCCCC/C=C\[C@@H]2C[C@@]2(C(=O)NS(=O)(=O)C2CC2)NC(=O)[C@@H]2C[C@@H](OC(=O)c3cccc(OC(F)(F)F)c3)CN2C1=O` [Compound 17, 18-[(3-trifluoromethoxy)benzoyloxy]-14-tert-butoxycarbonylamino-4-cyclopropylsulfonylaminocarbonyl-2,15-dioxo-3,16-diazatricyclo-[14.3.0.0^4,6]-nonadec-7-ene]: the melting point lay within 132 to 134 °C. For the same molecule, the EC50 in data set [1] is under 100 nM. The IC50 in data set [2] was under 100 nM.

As for `COc1ccccc1C(=O)O[C@@H]1C[C@H]2C(=O)N[C@]3(C(=O)NS(=O)(=O)C4CC4)C[C@H]3/C=C\COCCC[C@H](NC(=O)OC(C)(C)C)C(=O)N2C1` [Compound 7, 18-(2-methoxybenzoyloxy)-14-tert-butoxycarbonylamino-4-cyclopropylsulfonylaminocarbonyl-2,15-dioxo-3,16-diaza-10-oxa-tricyclo-[14.3.0.0^4,6]-nonadec-7-ene], the melting point lay in the range of 144 to 146 °C. In addition, the EC50 in data set [1] is over 1000 nM. The half-inhibitory concentration (IC50) in data set [2] was under 100 nM.

With `CCCC(C)C(=O)O[C@@H]1C[C@H]2C(=O)N[C@]3(C(=O)NS(=O)(=O)C4CC4)C[C@H]3/C=C\COCCC[C@H](NC(=O)OC(C)(C)C)C(=O)N2C1` (stereo partly drawn) [Compound 2, 18-(2-methylvaleryloxy)-14-tert-butoxycarbonylamino-4-cyclopropylsulfonylaminocarbonyl-2,15-dioxo-3,16-diaza-10-oxatricyclo-[14.3.0.0^4,6]-nonadec-7-ene], the melting point lay within 121 to 123 °C. Besides, in data set [1], the 50% effective concentration (EC50) is over 1000 nM. Also, in data set [2], the half-inhibitory concentration (IC50) is under 100 nM.

`CC(C)(C)OC(=O)N[C@H]1CCCCC/C=C\[C@@H]2C[C@@]2(C(=O)NS(=O)(=O)C2CC2)NC(=O)[C@@H]2C[C@@H](OC(=O)c3ccc4nccnc4c3)CN2C1=O` [Compound 24, 18-(6-quinoxalinecarbonyloxy)-14-tert-butoxycarbonylamino-4-cyclopropylsulfonylaminocarbonyl-2,15-dioxo-3,16-diazatricyclo-[14.3.0.0^4,6]-nonadec-7-ene] had a melting point of 158 to 160 °C. Besides, the EC50 in data set [1] was under 100 nM. Besides, the IC50 in data set [2] is under 100 nM.

Take `COc1ccc(C(=O)O[C@@H]2C[C@H]3C(=O)N[C@]4(C(=O)NS(=O)(=O)C5CC5)C[C@H]4/C=C\COCCC[C@H](NC(=O)OC(C)(C)C)C(=O)N3C2)cc1` [Compound 10, 18-(4-methoxybenzoyloxy)-14-tert-butoxycarbonylamino-4-cyclopropylsulfonylaminocarbonyl-2,15-dioxo-3,16-diaza-10-oxatricyclo-[14.3.0.0^4,6]-nonadec-7-ene]: the melting point fell in the range of 145 to 147 °C. For the same molecule, in data set [1], the EC50 is 100 to 1000 nM. Further, the concentration for half-maximal inhibition (IC50) in data set [2] was under 100 nM.

In the case of `CC(C)(C)OC(=O)N[C@H]1CCCOC/C=C\[C@@H]2C[C@@]2(C(=O)NS(=O)(=O)C2CC2)NC(=O)[C@@H]2C[C@@H](OC(=O)NC3CCCCC3)CN2C1=O` [Compound 36, 18-(cyclohexylaminocarbonyloxy)-14-tert-butoxycarbonylamino-4-cyclopropylsulfonylaminocarbonyl-2,15-dioxo-3,16-diaza-10-oxatricyclo-[14.3.0.0^4,6]-nonadec-7-ene], the melting point was in the range of 156 to 158 °C. In addition, in data set [1], the concentration for a half-maximal effect (EC50) is over 1000 nM. The IC50 in data set [2] is 100 to 1000 nM.
